ChEMBL document CHEMBL3885881, “DrugMatrix”

Species on record: Rattus norvegicus
Assay: DrugMatrix - Regimen: Daily Repeat
Format: toxicity, organism-based, Sprague-Dawley
Parameters: regimen Daily Repeat, gender Male, age 6-8 weeks
Details: in vivo, po, route oral GAVAGE, […]; for ABSOLUTE BASOPHIL / ABSOLUTE EOSINOPHIL / ABSOLUTE LYMPHOCYTE / ABSOLUTE MONOCYTE / ABSOLUTE SEGMENTED NEUTROPHIL / BASOPHIL / EOSINOPHIL / ERYTHROCYTE COUNT / HEMATOCRIT / HEMOGLOBIN / LEUKOCYTE COUNT / LYMPHOCYTE / MEAN CORPUSCULAR HEMOGLOBIN / MEAN CORPUSCULAR HEMOGLOBIN CONCENTRATION / MEAN CORPUSCULAR VOLUME / MONOCYTE / NEUTROPHIL / NUCLEATED RED BLOOD CELLS / PLATELET COUNT: tissue Blood; for ALANINE AMINOTRANSFERASE / ALBUMIN / ALKALINE PHOSPHATASE / ASPARTATE AMINOTRANSFERASE / BLOOD UREA NITROGEN / CARBON DIOXIDE / CHLORIDE / CHOLESTEROL / CREATINE PHOSPHOKINASE / CREATININE / GLUCOSE / LACTATE DEHYDROGENASE / LIPASE / PHOSPHORUS / POTASSIUM / SODIUM / TOTAL BILIRUBIN / TOTAL PROTEIN / URIC ACID: tissue Plasma
[1] = 0 mg/kg, 72 h, dose level Control, time 3 day
[2] = 0 mg/kg, 120 h, dose level Control, time 5 day
[3] = 6 mg/kg, 72 h, dose level Low, time 3 day

## CO[C@H]1O[C@@H]2O[C@@]3(C)CC[C@H]4[C@H](C)CC[C@@H]([C@H]1C)[C@@]24OO3
[1]
  ABSOLUTE BASOPHIL: 0 CELLS/uL
  ABSOLUTE EOSINOPHIL: 138.5 CELLS/uL
  ABSOLUTE LYMPHOCYTE: 13978.67 CELLS/uL
  ABSOLUTE MONOCYTE: 391 CELLS/uL
  ABSOLUTE SEGMENTED NEUTROPHIL: 1608.5 CELLS/uL
  BASOPHIL: 0%
  EOSINOPHIL: 1%
  ERYTHROCYTE COUNT: 5.8 x10E6/uL
  HEMATOCRIT: 36.22%
  HEMOGLOBIN: 13.65 G/DL
  LEUKOCYTE COUNT: 16.12 x10E3/uL
  LYMPHOCYTE: 86.67%
  MEAN CORPUSCULAR HEMOGLOBIN: 23.58 pg
  MEAN CORPUSCULAR HEMOGLOBIN CONCENTRATION: 37.72 G/DL
  MEAN CORPUSCULAR VOLUME: 62.52 fL
  MONOCYTE: 2.5%
  NEUTROPHIL: 9.83%
  NUCLEATED RED BLOOD CELLS: 0 /100WBC
  PLATELET COUNT: 1214.17 x10E3/uL
  ALANINE AMINOTRANSFERASE: 59.5 u/L
  ALBUMIN: 4.1 G/DL
  ALKALINE PHOSPHATASE: 393.83 u/L
  ASPARTATE AMINOTRANSFERASE: 87.83 u/L
  BLOOD UREA NITROGEN: 16.33 mg/dL
  CARBON DIOXIDE: 28.17 mmol/L
  CHLORIDE: 100.83 MEQ/L
  CHOLESTEROL: 73.33 mg/dL
  CREATINE PHOSPHOKINASE: 398 u/L
  CREATININE: 0.2 mg/dL
  GLUCOSE: 152.67 mg/dL
  LACTATE DEHYDROGENASE: 501.5 u/L
  LIPASE: 9.5 u/L
  PHOSPHORUS: 10.77 mg/dL
  POTASSIUM: 6.44 MEQ/L
  SODIUM: 143.4 MEQ/L
  TOTAL BILIRUBIN: 0.17 mg/dL
  TOTAL PROTEIN: 5.92 G/DL
  URIC ACID: 1.68 mg/dL
[2]
  ABSOLUTE BASOPHIL: 0 CELLS/uL
  ABSOLUTE EOSINOPHIL: 183.33 CELLS/uL
  ABSOLUTE LYMPHOCYTE: 14952.83 CELLS/uL
  ABSOLUTE MONOCYTE: 238.5 CELLS/uL
  ABSOLUTE SEGMENTED NEUTROPHIL: 1642 CELLS/uL
  BASOPHIL: 0%
  EOSINOPHIL: 1%
  ERYTHROCYTE COUNT: 5.89 x10E6/uL
  HEMATOCRIT: 36.13%
  HEMOGLOBIN: 13.37 G/DL
  LEUKOCYTE COUNT: 17.02 x10E3/uL
  LYMPHOCYTE: 87.17%
  MEAN CORPUSCULAR HEMOGLOBIN: 22.73 pg
  MEAN CORPUSCULAR HEMOGLOBIN CONCENTRATION: 37.02 G/DL
  MEAN CORPUSCULAR VOLUME: 61.45 fL
  MONOCYTE: 1.5%
  NEUTROPHIL: 10.33%
  NUCLEATED RED BLOOD CELLS: 0 /100WBC
  PLATELET COUNT: 1183.5 x10E3/uL
  ALANINE AMINOTRANSFERASE: 54.83 u/L
  ALBUMIN: 4.28 G/DL
  ALKALINE PHOSPHATASE: 363.17 u/L
  ASPARTATE AMINOTRANSFERASE: 96.83 u/L
  BLOOD UREA NITROGEN: 15.67 mg/dL
  CARBON DIOXIDE: 26.17 mmol/L
  CHLORIDE: 102.67 MEQ/L
  CHOLESTEROL: 63.67 mg/dL
  CREATINE PHOSPHOKINASE: 594.33 u/L
  CREATININE: 0.2 mg/dL
  GLUCOSE: 182.33 mg/dL
  LACTATE DEHYDROGENASE: 656.5 u/L
  LIPASE: 9.33 u/L
  PHOSPHORUS: 11.7 mg/dL
  POTASSIUM: 5.92 MEQ/L
  SODIUM: 142.62 MEQ/L
  TOTAL BILIRUBIN: 0.13 mg/dL
  TOTAL PROTEIN: 5.85 G/DL
  URIC ACID: 1.8 mg/dL
[3]
  ABSOLUTE BASOPHIL: 0 CELLS/uL
  ABSOLUTE EOSINOPHIL: 0 CELLS/uL
  ABSOLUTE LYMPHOCYTE: 14690 CELLS/uL
  ABSOLUTE MONOCYTE: 490.33 CELLS/uL
  ABSOLUTE SEGMENTED NEUTROPHIL: 1319.67 CELLS/uL
  BASOPHIL: 0%
  EOSINOPHIL: 0%
  ERYTHROCYTE COUNT: 5.7 x10E6/uL
  HEMATOCRIT: 36.23%
  HEMOGLOBIN: 13.63 G/DL
  LEUKOCYTE COUNT: 16.5 x10E3/uL
  LYMPHOCYTE: 88.67%
  MEAN CORPUSCULAR HEMOGLOBIN: 23.93 pg
  MEAN CORPUSCULAR HEMOGLOBIN CONCENTRATION: 37.67 G/DL
  MEAN CORPUSCULAR VOLUME: 63.6 fL
  MONOCYTE: 3%
  NEUTROPHIL: 8.33%
  NUCLEATED RED BLOOD CELLS: 0 /100WBC
  PLATELET COUNT: 1120 x10E3/uL
  ALANINE AMINOTRANSFERASE: 66.67 u/L
  ALBUMIN: 4.17 G/DL
  ALKALINE PHOSPHATASE: 405.67 u/L
  ASPARTATE AMINOTRANSFERASE: 88.33 u/L
  BLOOD UREA NITROGEN: 16.33 mg/dL
  CARBON DIOXIDE: 25.67 mmol/L
  CHLORIDE: 103 MEQ/L
  CHOLESTEROL: 70.33 mg/dL
  CREATINE PHOSPHOKINASE: 249.33 u/L
  CREATININE: 0.21 mg/dL
  GLUCOSE: 155.33 mg/dL
  LACTATE DEHYDROGENASE: 155 u/L
  LIPASE: 9.33 u/L
  PHOSPHORUS: 11.6 mg/dL
  POTASSIUM: 6.23 MEQ/L
  SODIUM: 145.23 MEQ/L
  TOTAL BILIRUBIN: 0.2 mg/dL
  TOTAL PROTEIN: 5.8 G/DL
  URIC ACID: 1.47 mg/dL
